From patent US20250376458A1, “COMPOUNDS AND METHODS FOR YAP/TEAD MODULATION AND INDICATIONS THEREFOR” (OPNA BIO SA, priority 2023, published 2025)

What follows are molecules tested on TEAD-dependent transcription (assay: TEAD-dependent transcription cell-based luciferase reporter assay (MSTO-211H+12XGTIIC)). Conditions: Homo sapiens, MSTO-211H, 24 h, MSTO-211H+12XGTIIC cell line, 24 hours compound incubation, luminescence normalized to cell viability fluorescence signal; read-out: MSTO-211H GMean IC50 (uM) Cell Assay Reporter Cell Variant: TEAD.
Design: species or system human
Source text: Determine Inhibitor Activity Against TEAD-Dependent Transcription in a Cell-Based Reporter Assay
The human mesothelioma cell line MSTO-211H was stably transfected with a pGL4.21 plasmid containing a synthetic promoter with 12 copies of the GTIIC TEAD response element that drives the expression of a luciferase reporter gene i using Lipofectamine transfection reagent (Thermo Fisher). Transfected cells were selected using puromycin and single cell clones expressing this construct (referred to as MSTO-211H+12XGTIIC) were generated by limiting dilution. MSTO-211H cells was characterized by genetic alterations in key components of the Hippo pathway^2, resulting in up-regulation of YAP/TEAD-mediated transcription. […] To evaluate TEAD inhibitors, the MSTO-211H+12XGTIIC cell line was seeded in a 96-well plate in 50 μL of culture media at 1×10^4 cells per well and incubated at 37° C. overnight. Serial dilutions of compounds (in total volume of 50 μL of culture media) were added to the cells and incubated at 37° C. for 24 hours. Each plate included cells treated with DMSO as high controls and cells treated with 20 μM of the reference compound K-975 (a known TEAD inhibitor)^3 as low controls. Cell viability was assayed by the addition of 25 μL of CellTiter-Fluor reagent (Promega) followed by a 30-minute incubation at 37° C. and quantification of the fluorescence signal (Ex400/Em505). Subsequently, luciferase expression was assayed by the addition of 25 μL of ONE-Glo reagent (Promega) followed by a 10-minute incubation at room temperature and quantification of the luminescence signal. The luminescence signal was normalized to the fluorescence signal to correct for any loss in cell viability over the 24-hour compound incubation period. The percentage of inhibition of normalized luminescence signal, indicative of compound-mediated inhibition of TEAD-dependent transcription, at individual compound concentrations relative to high and low controls was calculated. The data were analyzed by using nonlinear regression to generate IC50 values for individual compounds.

SMILES | IC50
CS(=O)(=O)c1nc(C(=O)N2CCc3ccc(Nc4ccc(C(F)(F)F)cc4)cc3C2)c[nH]1 [O-0013, (2-(methylsulfonyl)-1H-imidazol-4-yl)(7-((4-(trifluoromethyl)phenyl)amino)-3,4-dihydroisoquinolin-2(1H)-yl)methanone] | > 100 µM
CS(=O)(=O)c1nc(C(=O)N2CCc3c(cccc3Nc3ccc(C(F)(F)F)cn3)C2)c[nH]1 [O-0003, (2-(methylsulfonyl)-1H-imidazol-4-yl)(5-((5-(trifluoromethyl)pyridin-2-yl)amino)-3,4-dihydroisoquinolin-2(1H)-yl)methanone] | 0.001 to 10 µM
CS(=O)(=O)c1nc(C(=O)N2CCc3ccc(Nc4ccc(C(F)(F)F)nc4)cc3C2)c[nH]1 [O-0016, (2-(methylsulfonyl)-1H-imidazol-4-yl)(7-((6-(trifluoromethyl)pyridin-3-yl)amino)-3,4-dihydroisoquinolin-2(1H)-yl)methanone] | 10 to 100 µM
CCS(=O)(=O)c1nc(C(=O)N2CCc3c(cccc3Oc3ccc(C(F)(F)F)cc3)C2)c[nH]1 [O-0011, (2-(ethylsulfonyl)-1H-imidazol-4-yl)(5-(4-(trifluoromethyl)phenoxy)-3,4-dihydroisoquinolin-2(1H)-yl)methanone] | 10 to 100 µM
CNS(=O)(=O)c1nc(C(=O)N2CCc3cc(Oc4ccc(C(F)(F)F)cc4)ccc3C2)c[nH]1 [O-0111, N-methyl-4-(6-(4-(trifluoromethyl)phenoxy)-1,2,3,4-tetrahydroisoquinoline-2-carbonyl)-1H-imidazole-2-sulfonamide] | 0.001 to 10 µM
CS(=O)(=O)c1nc(C(=O)N2CCc3c(cccc3NC3CCC(F)(F)CC3)C2)c[nH]1 [O-0124, (5-((4,4-difluorocyclohexyl)amino)-3,4-dihydroisoquinolin-2(1H)-yl)(2-(methylsulfonyl)-1H-imidazol-4-yl)methanone] | > 100 µM
CS(=O)(=O)c1ncc(C(=O)N2CCc3ccc(Oc4ccc(C(F)(F)F)c(F)c4)cc3C2)[nH]1 [O-0123, (7-(3-fluoro-4-(trifluoromethyl)phenoxy)-3,4-dihydroisoquinolin-2(1H)-yl)(2-(methylsulfonyl)-1H-imidazol-5-yl)methanone] | 10 to 100 µM
CC(C)S(=O)(=O)c1nc(C(=O)N2CCc3c(cccc3Nc3ccc(C(F)(F)F)c(F)c3)C2)c[nH]1 [O-0027, (5-((3-fluoro-4-(trifluoromethyl)phenyl)amino)-3,4-dihydroisoquinolin-2(1H)-yl)(2-(isopropylsulfonyl)-1H-imidazol-4-yl)methanone] | 0.001 to 10 µM
CS(=O)(=O)c1nc(C(=O)N2CCc3ccc(Nc4ccc(C(F)(F)F)cn4)cc3C2)c[nH]1 [O-0015, (2-(methylsulfonyl)-1H-imidazol-4-yl)(7-((5-(trifluoromethyl)pyridin-2-yl)amino)-3,4-dihydroisoquinolin-2(1H)-yl)methanone] | 10 to 100 µM
CS(=O)(=O)c1nc(C(=O)N2CCc3c(ncnc3Oc3ccc(C(F)(F)F)cc3F)C2)c[nH]1 [O-0120, (4-(2-fluoro-4-(trifluoromethyl)phenoxy)-5,8-dihydropyrido[3,4-d]pyrimidin-7(6H)-yl)(2-(methylsulfonyl)-1H-imidazol-4-yl)methanone] | 0.001 to 10 µM
CS(=O)(=O)c1nc(C(=O)N2CCc3c(cccc3Nc3ccc(C(F)(F)F)c(F)c3)C2)c[nH]1 [O-0004, (5-((3-fluoro-4-(trifluoromethyl)phenyl)amino)-3,4-dihydroisoquinolin-2(1H)-yl)(2-(methylsulfonyl)-1H-imidazol-4-yl)methanone] | 0.001 to 10 µM
CC(C)S(=O)(=O)c1nc(C(=O)N2CCc3c(cccc3Oc3ccc(C(F)(F)F)cc3)C2)c[nH]1 [O-0021, (2-(isopropylsulfonyl)-1H-imidazol-4-yl)(5-(4-(trifluoromethyl)phenoxy)-3,4-dihydroisoquinolin-2(1H)-yl)methanone] | 0.001 to 10 µM
CS(=O)(=O)c1nc(C(=O)N2CCc3ccc(Nc4ccc(C(F)(F)F)cc4F)cc3C2)c[nH]1 [O-0017, (7-((2-fluoro-4-(trifluoromethyl)phenyl)amino)-3,4-dihydroisoquinolin-2(1H)-yl)(2-(methylsulfonyl)-1H-imidazol-4-yl)methanone] | 10 to 100 µM
CCS(=O)(=O)c1nc(C(=O)N2CCc3c(cccc3Nc3ccc(C(F)(F)F)cc3)C2)c[nH]1 [O-0012, (2-(ethylsulfonyl)-1H-imidazol-4-yl)(5-((4-(trifluoromethyl)phenyl)amino)-3,4-dihydroisoquinolin-2(1H)-yl)methanone] | > 100 µM
CS(=O)(=O)c1nc(C(=O)N2CCc3cc(Oc4ccc(C(F)(F)F)c(F)c4)cnc3C2)c[nH]1 [O-0077, (3-(3-fluoro-4-(trifluoromethyl)phenoxy)-5,8-dihydro-1,7-naphthyridin-7(6H)-yl)(2-(methylsulfonyl)-1H-imidazol-4-yl)methanone] | 0.001 to 10 µM

Same assay, conditions: MSTO-211H+12XGTIIC cell line, 24 hours compound incubation, luminescence normalized to cell viability fluorescence signal; read-out: MSTO-211H GMean IC50 (uM) Cell Assay Reporter Cell Variant: TEAD

SMILES | IC50
CCS(=O)(=O)c1nc(C(=O)N2CCc3c(ncnc3Oc3ccc(C(F)(F)F)cc3F)C2)c[nH]1 [O-0129, (2-(ethylsulfonyl)-1H-imidazol-4-yl)(4-(2-fluoro-4-(trifluoromethyl)phenoxy)-5,8-dihydropyrido[3,4-d]pyrimidin-7(6H)-yl)methanone] | 10 to 100 µM
CS(=O)(=O)c1nc(C(=O)N2CCc3c(ncnc3Oc3ccc(C(F)(F)F)c(F)c3)C2)c[nH]1 [O-0115, (4-(3-fluoro-4-(trifluoromethyl)phenoxy)-5,8-dihydropyrido[3,4-d]pyrimidin-7(6H)-yl)(2-(methylsulfonyl)-1H-imidazol-4-yl)methanone] | 0.001 to 10 µM
CS(=O)(=O)c1nc(C(=O)N2CCc3c(ncnc3Oc3ccc(C(F)(F)F)cc3)C2)c[nH]1 [O-0119, (2-(methylsulfonyl)-1H-imidazol-4-yl)(4-(4-(trifluoromethyl)phenoxy)-5,8-dihydropyrido[3,4-d]pyrimidin-7(6H)-yl)methanone] | 0.001 to 10 µM
